Source: US4255183A, “Substituted phenyl urea and herbicides for use in paddy field” (Hokko Chemical Industry Co., Ltd., priority 1977, dated 1981)
Read-outs that look alike come from different tables or passages of the source.

Columns and labels:
[1] = system: Echinochloa crus-galli var. oryzicola; assay: Test Example 3: field test in transplanted paddy field, Echinochloa crus-galli var. oryzicola; assay type: in vivo; settings: Echinochloa crus-galli, 1440 h; 300 g/10 are, granule, applied at 4-leaf stage, examined 60 days after transplantation; read-out: Inhibition (%) of E. crus-galli var. oryzicola
Description: (§1) In a Wagner pot of 1/500 are, paddy field soil (alluvial soil) was placed and 50 seeds of Echinochloa crus-galli var. oryzicola and 30 seeds of paddy rice were seeded in the surface layer of said soil and the submerging depth was kept at about 1 cm. When Echinochloa crus-galli var. oryzicola reached at the one leaf stage and 5-leaf stage, the emulsion of a predetermined concentration, prepared according to Example 4 was added dropwise. After 30 days from the treatment with the chemical, dry weights of Echinochloa crus-galli var. oryzicola and paddy rice were measured and the inhibition rate was calculated with reference to untreated area. [formula]
(§2) In a 10 m^2 paddy field, young seedlings of paddy rice (Asahi species) at the 2,5-leaf stage were transplanted 30 days after the puddling the submerging at the depth of 3-5 cm. 25 Days after the transplantation, when Echinochloa crus-galli var. oryzicola reached 4-leaf stage, a predetermined dose of the granule prepared according to Example 1 was applied. Test results were examined 60 days after the transplantation of paddy rice in the similar manner as in Test Example 1.
(§3) Comparative chemicals used were all those commercially available and in the case of the comparative chemical 2, CNP was applied 3 days after the transplantation of paddy rice and after 25 days a mixture of Benthiocarb and Simetryne was applied.

paddy rice = assay: Test Example 3: field test in transplanted paddy field, paddy rice; assay type: in vivo, paddy rice (Asahi species); settings: Oryza sativa; 300 g/10 are, granule, applied 25 days after transplantation, examined 60 days after transplantation
Description: as §1, §2, §3

Bulrush = assay: Test Example 5: Wagner pot test, herbicidal effect on Bulrush; assay type: in vivo
Description: In a 1/7500 are Wagner pot, sieved paddy field soil (alluvial soil) was charged. Thereafter, in the center portion of the pot, 2 roots of paddy rice (Asahi species) at the 2- to 3-leaf stage were transplanted and 20 seeds of Bulrush per pot were seeded in the surface of the above soil. The pot was submerged at the depth of about 2 cm. The other Dopatrium junceum and umbrella plant were generated naturally. After seeding, when each of the weeds reached the same leaf age as defined in Table 5 given herein, a predetermined concentration of the emulsion prepared according to Example 4 was applied dropwise on the surface of the pot. The test was carried out by repeating the same test three times per area and the results were determined 20 days after the application of the chemicals with regard to the herbicidal effect and chemical injury on paddy rice on the basis of the evaluation index as shown below.
As the comparative chemicals Molinate, Benthiocarb and DCMU, those commercially available were used.
In the above table, the inhibition rate was calculated according to the method as described in Test Example 1.

Acute fish toxicity = settings: in vivo; young carp, Official Standard of Ministry of Agriculture & Forestry; read-out: acute fish toxicity TLm
Description: Acute oral toxicity LD50 value of the compound of the invention measured on SD-strain rat is more than 2,000 mg/Kg for any of the trans-form, cis-form and a mixture thereof in equal amount and further acute fish toxicity TLm value (as defined by Official Standard issued from Ministry of Agriculture & Forestry) measured on young carp is more than 20 ppm for any of the above compounds.

[2] = system: Echinochloa crus-galli var. oryzicola; assay: Test Example 2: concrete pot test on killing effect, Echinochloa crus-galli var. oryzicola; assay type: in vivo; settings: Echinochloa crus-galli, 720 h, granule, 30 days after treatment; for inhibition at 1000 g/ha: 100 g/10 are; for inhibition at 3000 g/ha: 300 g/10 are; for inhibition at 9000 g/ha: 900 g/10 are
Summary of the method: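 Barnyardgrass seeded in flooded alluvial paddy soil (~3 cm water) in concrete pots, with 2.5-leaf Asahi rice transplanted before weed emergence. Granules applied at weed 1-leaf or 5-leaf stage. Dry weights measured 30 days after treatment; inhibition rate calculated versus untreated area.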

[3] = 300 g/10a, leaf age 3, 20 days after application
[4] = 300 g/10a, leaf age 3-5, 20 days after application
[5] = 600 g/10a, leaf age 3, 20 days after application
[6] = 600 g/10a, leaf age 3-5, 20 days after application
[7] = read-out: Inhibition (%) by treatment at 1-leaf stage of E. crus-galli var. oryzicola, E. crus-galli var. oryzicola
[8] = read-out: Inhibition (%) by treatment at 5-leaf stage of E. crus-galli var. oryzicola, E. crus-galli var. oryzicola

Compound	inhibition at 3000 g/ha [1] [%]	inhibition at 3000 g/ha (paddy rice) [%]	Weed kill degree, Bulrush (Bulrush; [3])	Weed kill degree, Bulrush (Bulrush; [4])	Weed kill degree, Bulrush (Bulrush; [5])	Weed kill degree, Bulrush (Bulrush; [6])	LC50 (Acute fish toxicity) [µg/mL]	inhibition at 1000 g/ha [2, 7] [%]	inhibition at 1000 g/ha [2, 8] [%]	inhibition at 3000 g/ha [2, 7] [%]	inhibition at 3000 g/ha [2, 8] [%]	inhibition at 9000 g/ha [2, 7] [%]	inhibition at 9000 g/ha [2, 8] [%]
CC=CCOc1ccc(NC(=O)N(C)C)cc1 [Mixture of trans- and cis-forms 1:1]	100	0	5 (100)	5 (100)	5 (100)	5 (100)	> 20	100	100	100	100	100	100
C/C=C\COc1ccc(NC(=O)N(C)C)cc1 [cis-form, 3-(4-cis-crotyloxyphenyl)-1,1-dimethyl urea]	100	0	5 (100)	5 (100)	5 (100)	5 (100)	> 20	100	100	100	100	100	100
C/C=C/COc1ccc(NC(=O)N(C)C)cc1 [trans-form, 3-(4-trans-crotyloxyphenyl)-1,1-dimethyl urea]	100	0	5 (100)	5 (100)	5 (100)	5 (100)	> 20	100	100	100	100	100	100
